From article PMC2606674, “Metabolism of no-carrier-added 2-[^18F]fluoro-L-tyrosine in rats” (BMC Medical Physics, 2008)
Where two headings read alike, the source gives them in different places.

Tests used:
cerebral proteins [1] = test system: cerebral proteins; set-up: method as in PMID 2787848; settings: mouse cortex; cited from earlier work
[2] = Biodistribution of radioactivity after i.v. injection in awake rats; type: in vivo, rat
Description: All animal experiments were approved by the Ethical Committee at our institution. Chronic cannulations of rats (male, Sprague Dawley, 180–250 g) were performed in the abdominal aorta and in the vena cava under general anaesthesia (ketamine 35 mg/kg and medetomidin 0.35 mg/kg) following the procedure described by Lestage. The animals were allowed to recover for a minimum of 4 days before being used for metabolism studies. Most of them were injected with the tracer within the first week after surgery. Some of them were kept up to 4 weeks before injection. Twenty hours before the injection of the tracer, the food was removed from the cage. The arterial line was used for blood sampling and the other for i.v. injection of the tracer. The two lines were flushed with saline a few minutes before use in order to check potency. 14 rats (230–410 g) were injected with 20–325 MBq of n-c-a 2-[^18F]Tyr. The tracer was delivered as a bolus of maximum volume 0.75 ml in 15 s. […]
Radioactivity was measured in weighed fractions of plasma. […] The supernatant was analysed by HPLC. Radioactivity was measured in the organ samples and in one half of the three dissected parts of the brain. […] The supernatant was analysed by HPLC.
Radioactivity measurements of the biological samples and of the fractions collected during HPLC were performed with a NaI counter (Cobra II autogamma, Packard).

[3] = set-up: method as in PMID 2787848; settings: cited from earlier work
cerebral proteins [4] = test: Incorporation into proteins (TCA precipitation of brain regions) in rats; type: in vivo, rat
Description: Chronic cannulations of rats (male, Sprague Dawley, 180–250 g) were performed in the abdominal aorta and in the vena cava under general anaesthesia (ketamine 35 mg/kg and medetomidin 0.35 mg/kg) following the procedure described by Lestage [14]. The animals were allowed to recover for a minimum of 4 days before being used for metabolism studies. Most of them were injected with the tracer within the first week after surgery. Some of them were kept up to 4 weeks before injection. Twenty hours before the injection of the tracer, the food was removed from the cage. The arterial line was used for blood sampling and the other for i.v. injection of the tracer. The two lines were flushed with saline a few minutes before use in order to check potency. 14 rats (230–410 g) were injected with 20–325 MBq of n-c-a 2-[^18F]Tyr. The tracer was delivered as a bolus of maximum volume 0.75 ml in 15 s. Samples of blood were obtained via the arterial cannula during the first minutes after the injection and at different times (15, 30, 45, 60 and/or 90 minutes) thereafter. The line was flushed with saline between each sample to avoid any loss of potency and to ensure the homogeneity of the next sample. The animals (n = number of rats) were sacrificed after 30 (n = 2), 60 (n = 5), 90 (n = 3) or 120 (n = 4) minutes. After the final time point, samples of blood were taken and the major organs were dissected. The brain was dissected to obtain striatum, cortex and cerebellum.
Trichloroacetic acid (TCA) was used to precipitate the proteins from biological samples in order to assay the radioactive content associated with proteins and to perform a chromatographic analysis of the radioactive compounds in solution in the supernatant after centrifugation. The solution used for the precipitation was Na2S2O5 100 mg, NaEDTA.2H2O 10 mg, TCA 20 g, dissolved in water up to 100 ml.
Radioactivity was measured in weighed fractions of plasma. For intermediate and final plasma samples, proteins were precipitated with TCA solution and separated by centrifugation (5°C, 5 minutes, 8000 RPM) before counting. The supernatant was analysed by HPLC. Radioactivity was measured in the organ samples and in one half of the three dissected parts of the brain. The second halves were sonicated with water (Sonics & Materials inc., Vibracell VXC-400). The proteins were precipitated with TCA solution and separated by centrifugation (5°C, 5 minutes, 8000 RPM) before counting. The supernatant was analysed by HPLC.

absolute uptake into rat brain tissue ([2]; awake rats, i.v. bolus, n-c-a tracer): ~ 0.15 %IA/g
passage of the blood-brain-barrier ([2]; rats, brain uptake already high at 30 minutes post injection): rapidly passes the blood-brain-barrier
radioactivity associated with proteins, percentage of the total activity in the tissue (cerebral proteins [4]; rat cerebellum, 60 minutes): 84%
radioactivity associated with proteins, percentage of the total activity in the tissue (cerebral proteins [4]; rat cortex, 60 minutes): 85%
radioactivity associated with proteins, percentage of the total activity in the tissue (cerebral proteins [4]; rat striatum, 60 min): 66%
incorporation into proteins, percentage of the total activity (cerebral proteins [4]; rats, non dopaminergic rich regions, 120 minutes): ~90%
SMILES: N[C@@H](Cc1ccc(O)cc1[18F])C(=O)O [2-[^18F]Tyr, 2-[^18F]fluoro-L-tyrosine]
radioactivity associated with proteins, percentage of the total activity in the tissue (cerebral proteins [1]): 84%
absolute uptake into brain tissue, mice ([3]; at 40 min): ~ 1.3 %IA/g
absolute uptake into brain tissue, mice ([3]; at 60 min): ~ 2 %IA/g
